Source: publication PMC3220680, “Microsecond Molecular Dynamics Simulations of Intrinsically Disordered Proteins Involved in the Oxidative Stress Response” (PLoS ONE, 2011)
Where two headings read alike, the source gives them in different places.

Tests used:
[1] = test system: Keap1; conditions: cited from earlier work; for competition with full-length Nrf2 for binding to Keap1: compared with 10-mer peptide (LDEETGEFLP), ref [79]
[2] = target: Kelch domain of Keap1; conditions: ITC; ref [79]; cited from earlier work
[3] = test system: Kelch domain of mouse Keap1 (residues 324–612); experiment: ITC binding of mouse peptides to Kelch domain of Keap1
Method: The Kelch domain (residues 324–612) of mouse Keap1 was expressed in Escherichia coli BL21 (DE3) grown in minimal M9 medium. The N-terminally His-tagged protein was purified by affinity chromatography using Ni Sepharose™ 6 Fast Flow beads (Amersham Biosciences). The tag was then cleaved by incubation with His-tagged tobacco etch virus (TEV) protease overnight at 25°C. The protein product was purified by passing the mixture through Ni Sepharose™ 6 Fast Flow beads (Amersham Biosciences).
ITC experiments were performed on a VP-ITC system (MicroCal) at 25°C. The Kelch domain was dialyzed against 50 mM phosphate buffer at pH 7, containing 100 mM NaCl and 1 mM DTT. Mouse ProTα (Ala-39 to Asp-54) and Neh2 (Leu-76 to Leu-84) peptides (GenScript) were also dissolved in the same buffer. All samples were filtered and degassed before the ITC experiments. […] Heat changes after saturation were used to account for the heat of dilution. The binding stoichiometries (n), enthalpy changes (ΔH), binding constants (Ka), Gibbs free energy changes (ΔG) and entropy changes (ΔS) were calculated using the titration data.
Supplementary file pone.0027371.s006.tif: Figure S4 Isothermal titration calorimetry (ITC) measurements. […] (Upper) The raw data of two ITC experiments each performed at 25°C. (Lower) The integrated heat changes, corrected for the heat of dilution, and the fitted curve assuming single-site binding. (TIF) Click here for additional data file.

[4] = test system: Nrf2-targeted cytoprotective genes; conditions: ref [49], [50]; cited from earlier work
Text: The Keap1-binding motif of ProTα (-NEENGE-) shares a similar sequence with that of the Neh2 ...

[5] = target: Keap1 Kelch (Homo sapiens) (UniProt Q14145); experiment: ITC; conditions: cited from earlier work
[6] = target: Keap1 Kelch (Mus musculus) (UniProt Q9Z2X8); conditions: cited from earlier work
[7] = target: Keap1 Kelch (Mus musculus) (UniProt Q9Z2X8); experiment: ITC; conditions: cited from earlier work
[8] = target: T1, Kelch domain (residues 324–612) of mouse Keap1 (mouse, UniProt Q9Z2X8 324-612); experiment: ITC; VP-ITC (MicroCal), 25°C; 5 µL aliquots of 0.5 mM peptide titrated into 1.4 mL of 0.05 mM Kelch in the cell; 50 mM phosphate pH 7, 100 mM NaCl, 1 mM DTT; single-site fit; conditions: both partners purified
T1 construct: Kelch domain of Kelch-like ECH-associated protein 1 (Keap1), mouse, residues 324-612; His tag cleaved with TEV protease; also called Kelch-like ECH-associated protein 1; source: Escherichia coli BL21 (DE3) in minimal M9 medium, purified (Ni Sepharose, TEV cleavage, second Ni Sepharose pass); not shown: His tag, N-terminal, cleaved

[9] = ITC, T = 298 K, pH 7, 50 mM phosphate, 100 mM NaCl, 1 mM DTT

T1 sequence (Q9Z2X8 324-612): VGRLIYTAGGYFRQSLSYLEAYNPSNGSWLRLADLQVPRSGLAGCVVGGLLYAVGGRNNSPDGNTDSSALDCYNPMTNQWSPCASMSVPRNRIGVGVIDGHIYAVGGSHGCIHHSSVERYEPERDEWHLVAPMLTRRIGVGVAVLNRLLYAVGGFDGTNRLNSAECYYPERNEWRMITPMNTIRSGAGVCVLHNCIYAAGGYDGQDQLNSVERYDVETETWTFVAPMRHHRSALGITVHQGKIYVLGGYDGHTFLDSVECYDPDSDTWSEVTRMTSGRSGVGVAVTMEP
Sequence of Keap1 Kelch (Mus musculus) (Q9Z2X8 309-624): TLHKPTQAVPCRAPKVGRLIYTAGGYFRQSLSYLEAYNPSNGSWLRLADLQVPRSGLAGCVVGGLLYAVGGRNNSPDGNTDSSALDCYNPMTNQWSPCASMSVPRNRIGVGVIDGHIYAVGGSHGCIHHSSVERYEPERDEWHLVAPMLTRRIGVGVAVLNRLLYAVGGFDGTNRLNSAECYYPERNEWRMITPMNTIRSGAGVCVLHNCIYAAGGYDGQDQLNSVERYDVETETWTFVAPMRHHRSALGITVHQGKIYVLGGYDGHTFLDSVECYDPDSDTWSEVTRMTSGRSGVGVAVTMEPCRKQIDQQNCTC
Sequence of Keap1 Kelch (Homo sapiens) (Q14145 321-609): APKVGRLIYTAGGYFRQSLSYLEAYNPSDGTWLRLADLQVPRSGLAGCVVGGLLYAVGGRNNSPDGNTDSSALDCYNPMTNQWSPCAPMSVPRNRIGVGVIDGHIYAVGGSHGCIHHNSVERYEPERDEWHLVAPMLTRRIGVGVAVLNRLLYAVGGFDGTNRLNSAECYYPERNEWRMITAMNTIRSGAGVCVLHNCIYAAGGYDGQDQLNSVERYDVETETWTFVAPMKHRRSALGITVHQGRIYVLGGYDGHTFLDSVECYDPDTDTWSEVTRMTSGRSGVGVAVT

AFFAQLQLDEETGEFL
competition with full-length Nrf2 for binding to Keap1 [1]: could compete with full-length Nrf2 for binding to Keap1 much better than a 10-mer peptide (LDEETGEFLP)
Kd [2]: ~20 nM

AQNEENGEQEADNEVD [16-mer ProTα peptide, Mouse ProTα (Ala-39 to Asp-54) peptide (GenScript)]
relative binding to Keap1 ([3]; 16-mer ProTα vs Neh2 peptide with the same length, own ITC compared with ref [79]): interacts more weakly with Keap1 compared to the Neh2 peptide with the same length
Ka (binding constant) ([3]; ITC (VP-ITC), 25°C (T = 298 K), 50 mM phosphate pH 7, 100 mM NaCl, 1 mM DTT, 0.5 mM peptide titrated into 0.05 mM Kelch, single-site fit): 2.4 ± 0.1 10^6 M^−1
TΔS (entropy change upon binding) [3, 9]: -10.20 kcal/mol
ΔG (Gibbs free energy change upon binding) [3, 9]: -8.70 ± 0.02 kcal/mol

LQLDEETGEFLPIQ
competition with full-length Nrf2 for binding to Keap1 [1]: could compete with full-length Nrf2 for binding to Keap1 much better than a 10-mer peptide (LDEETGEFLP)

MSDAAVDTSSEITTKDLKEKKEVVEEAENGRDAPANGNAQNEENGEQEADNEVDEEEEEGGEEEEEEEEGDGEEEDGDEDEEAEAPTGKRVAEDDEDDDVDTKKQKTEEDD [Full-length ProTα, Prothymosin alpha, full-length mouse ProTα protein, simulated]
competition with Nrf2 for binding to Keap1 ([1]; ref [49], [50]): can compete with Nrf2 for binding to Keap1
Nrf2-targeted cytoprotective genes [4]: upregulation of Nrf2-targeted cytoprotective genes

Nrf2 16-mer peptide 16-mer ETGE peptide (from UniProt Q16236)
Kd [5]: 20 nM

Nrf2 Neh2 (DLG motif) Neh2 (from UniProt Q60795)
Kd [6]: 500 nM

Nrf2 Neh2 (ETGE motif) Neh2 (from UniProt Q60795)
Kd [7]: 8 nM

B1: 16-mer ProTα peptide (mouse), Ala-39 to Asp-54 (peptide)
peptide: AQNEENGEQEADNEVD
notes: Prothymosin alpha (ProTα), mouse, residues 39-54; also called Prothymosin alpha peptide; source: synthetic peptide; bought: GenScript
Ka [8]: 2.4e+06 ± 0.1 M⁻¹
dH [8]: -18.9 ± 0.1 kcal/mol
stoichiometry N [8]: 1.03
